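Dose response: 5 concentrations. Exposure: 48 h. Format: 96-well plates. Endpoint: linear interpolation; highest concentration if not reached. GI50 is the concentration that inhibits growth by half. Definition used: TGI = concentration required for complete inhibition of growth.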

Test systems include SF-268 CNS; SF-295 CNS; OVCAR-8 ovarian; SK-OV-3 ovarian; SK-MEL-28 melanoma; MDA-MB-231 breast; HCT-15 colon; IGROV1 ovarian; MALME-3M melanoma; SR leukemia.
Holding throughout (experiment): NCI anticancer screen, dose series, 48 h

Consider `CCCCS(=O)(=O)c1cc(Nc2ccc(O)c3c2C(=O)c2ccccc2C3=O)ccc1C`, for which the GI50 in the test on SF-268 CNS is 57.7 µM; with SF-295 CNS, 5.77 µM; with OVCAR-8 ovarian it was above 100 µM; with SK-OV-3 ovarian, above 100 µM; in the test with SK-MEL-28 melanoma, above 100 µM; in the test with MDA-MB-231 breast it was 1.68 µM. Further, the GI50 with HCT-15 colon is 6.03 µM; with IGROV1 ovarian, above 100 µM. In addition, the TGI with SF-268 CNS, in the test with SF-295 CNS, with OVCAR-8 ovarian, with SK-OV-3 ovarian, in the test with SK-MEL-28 melanoma and with MDA-MB-231 breast was above 100 µM each time. Further, the TGI in the test with HCT-15 colon and with IGROV1 ovarian was above 100 µM each time.

Turning to `C=C1C(=O)O[C@@H]2C[C@@H](C)[C@@H]3C=CC(=O)[C@@]3(C)[C@@H](OC(=O)CCCC(=O)O[C@H]3[C@@H]4C(=C)C(=O)O[C@@H]4C[C@@H](C)[C@@H]4C=CC(=O)[C@]43C)[C@H]12`, the TGI in the test with SF-268 CNS stood at 0.23 µM; in the test on SF-295 CNS it was 3.13 µM; with OVCAR-8 ovarian, 0.0295 µM; in the test on MALME-3M melanoma, 0.0373 µM; in the test with SK-OV-3 ovarian, 3.8 µM; in the test on SK-MEL-28 melanoma, 0.136 µM. Moreover, the TGI in the test on MDA-MB-231 breast turned out to be 0.079 µM; with HCT-15 colon, 0.112 µM; in the test on IGROV1 ovarian, 0.313 µM.

Consider `COc1cc(C=NCC(=O)CSC(c2ccccc2)c2ccccc2)ccc1O`, for which the GI50 was 17.2 µM in the test with SF-268 CNS; 14.6 µM in the test on SF-295 CNS; 12.6 µM in the test with OVCAR-8 ovarian; 6.11 µM in the test on MALME-3M melanoma; 8.27 µM in the test on SR leukemia; 3.58 µM in the test with SK-OV-3 ovarian. Moreover, the GI50 in the test on SK-MEL-28 melanoma was 14.4 µM; in the test with MDA-MB-231 breast it was 12.8 µM; in the test with HCT-15 colon it was 13.8 µM. Besides, the TGI in the test with SF-268 CNS was 40 µM; in the test on SF-295 CNS, 46.9 µM; with OVCAR-8 ovarian, 25.1 µM; in the test with MALME-3M melanoma, 22.4 µM; in the test on SR leukemia, 25.3 µM; in the test with SK-OV-3 ovarian, 17.2 µM. Also, the TGI with SK-MEL-28 melanoma came to 27.6 µM; in the test on MDA-MB-231 breast, 26.7 µM; with HCT-15 colon, 30.8 µM.

Take `CCNc1ccc2c(c1)C(=O)N(OS(C)(=O)=O)C2=O`: the TGI with SF-268 CNS, in the test with SF-295 CNS, with OVCAR-8 ovarian, in the test on MALME-3M melanoma, in the test with SK-OV-3 ovarian and in the test on SK-MEL-28 melanoma was above 100 µM throughout. Besides, the TGI in the test on MDA-MB-231 breast and with HCT-15 colon was above 100 µM in each case.

Consider `CC(C)(C)OC(=O)NCCCCCCCCCCCCn1c2c(c3ccccc3c1=O)C(=O)c1ccccc1-2`, for which the GI50 in the test on SF-268 CNS is 26.8 µM; in the test with SF-295 CNS, 17.5 µM; with OVCAR-8 ovarian, 49.8 µM; in the test on MALME-3M melanoma, above 100 µM; with SR leukemia, 35 µM; with SK-OV-3 ovarian it was 22.9 µM. Moreover, the values for the GI50 in the test on SK-MEL-28 melanoma, in the test with MDA-MB-231 breast and with HCT-15 colon were above 100 µM, 21 µM and above 100 µM, respectively. For the same molecule, the TGI is above 100 µM with SF-268 CNS; 53 µM with SF-295 CNS; above 100 µM with OVCAR-8 ovarian; above 100 µM in the test on MALME-3M melanoma; above 100 µM with SR leukemia; 74.1 µM in the test with SK-OV-3 ovarian. Further, the TGI was above 100 µM with SK-MEL-28 melanoma, 58.9 µM in the test on MDA-MB-231 breast and above 100 µM in the test on HCT-15 colon.

For `C=C(CN1CCc2ccccc2C1)c1ccc(CCCC(=O)Nc2ccccc2N)cc1`, the GI50 was above 100 µM in the test on SF-268 CNS; 14.6 µM in the test with SF-295 CNS; 18.4 µM in the test on OVCAR-8 ovarian; 11.7 µM in the test on MALME-3M melanoma; 19.4 µM with SK-OV-3 ovarian; 15.7 µM with SK-MEL-28 melanoma. In addition, the GI50 in the test on MDA-MB-231 breast is 10.2 µM; in the test on HCT-15 colon it was 28 µM. In addition, the TGI in the test with SF-268 CNS is above 100 µM; in the test with SF-295 CNS, 39.9 µM; with OVCAR-8 ovarian it was 62.8 µM; in the test on MALME-3M melanoma, 25.7 µM; with SK-OV-3 ovarian, 52.9 µM; with SK-MEL-28 melanoma, 29.7 µM. Also, the TGI in the test on MDA-MB-231 breast was 26.3 µM; with HCT-15 colon it was above 100 µM.

Take `COC(=O)c1c(C(=O)O)c(-c2ccccc2)c(-c2ccccc2)c(-c2ccccc2)c1-c1ccccc1`: the GI50 is above 100 µM with SF-268 CNS; above 100 µM with SF-295 CNS; above 100 µM in the test with OVCAR-8 ovarian; above 100 µM in the test with MALME-3M melanoma; above 100 µM in the test with SK-OV-3 ovarian; 93.4 µM with SK-MEL-28 melanoma. Moreover, the GI50 in the test on MDA-MB-231 breast, in the test with HCT-15 colon and in the test with IGROV1 ovarian was above 100 µM each time. Moreover, the TGI in the test with SF-268 CNS, in the test with SF-295 CNS, in the test with OVCAR-8 ovarian, in the test on MALME-3M melanoma, in the test on SK-OV-3 ovarian and in the test with SK-MEL-28 melanoma was above 100 µM each time. For the same molecule, the TGI in the test on MDA-MB-231 breast, in the test with HCT-15 colon and in the test on IGROV1 ovarian was above 100 µM throughout.

For the molecule `CN(CCOc1ccc(NS(C)(=O)=O)cc1)CCc1ccc(NS(C)(=O)=O)cc1`, the GI50 in the test on SF-268 CNS, in the test on SF-295 CNS, with OVCAR-8 ovarian, in the test on MALME-3M melanoma, with SR leukemia and in the test on SK-MEL-28 melanoma was above 100 µM in each case. Also, the GI50 with MDA-MB-231 breast, with HCT-15 colon and with IGROV1 ovarian was above 100 µM throughout. The TGI with SF-268 CNS, in the test on SF-295 CNS, with OVCAR-8 ovarian, in the test with MALME-3M melanoma, in the test on SR leukemia and with SK-MEL-28 melanoma was above 100 µM in each case. In addition, the TGI in the test on MDA-MB-231 breast, in the test with HCT-15 colon and in the test with IGROV1 ovarian was above 100 µM throughout.

Consider `O=C(O)C(Cc1ccccc1)N1C(=O)/C(=C/C(Cl)=C/c2ccc([N+](=O)[O-])cc2)SC1=S` (configuration not stated), for which the GI50 in the test with SF-295 CNS was 2.59 µM; with OVCAR-8 ovarian it was 3.13 µM; with MALME-3M melanoma, 2.13 µM; with SR leukemia it was 2.45 µM; with SK-OV-3 ovarian, 4.13 µM; with SK-MEL-28 melanoma it was 2.16 µM. The GI50 in the test with MDA-MB-231 breast was 3.35 µM; with HCT-15 colon, 1.92 µM. Besides, the TGI with SF-295 CNS is 7.85 µM; in the test on OVCAR-8 ovarian, above 100 µM; with MALME-3M melanoma, 4.82 µM; in the test on SR leukemia it was above 100 µM; with SK-OV-3 ovarian, above 100 µM; in the test with SK-MEL-28 melanoma, 4.68 µM. Further, the results for the TGI in the test with MDA-MB-231 breast and in the test with HCT-15 colon were above 100 µM and 4.58 µM, respectively.
